From PubChem BioAssay (NCI) come the findings set out here.

The structures appear in SMILES notation.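 96-well plates; 48 h exposure; 5 concentrations. Endpoints by linear interpolation between flanking doses. Not reached: highest tested concentration assigned. TGI is the concentration that stops growth completely.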

Among the test systems are PC-3 prostate; SNB-75 CNS; HT29 colon; SK-OV-3 ovarian; SK-MEL-28 melanoma; SR leukemia; HCC-2998 colon; NCI/ADR-RES ovarian; EKVX NSCLC; OVCAR-8 ovarian.
What all share (experiment): growth of human tumour cells (NCI), 48 h

As to `CCOC(=O)NC(Nc1ccc(F)cc1F)(C(F)(F)F)C(F)(F)F`, the TGI in the assay on PC-3 prostate, in the assay on SNB-75 CNS, in the assay on HT29 colon, with SK-OV-3 ovarian, with SK-MEL-28 melanoma and in the assay with SR leukemia was over 100 µM throughout. Also, the TGI in the assay on HCC-2998 colon, in the assay on NCI/ADR-RES ovarian, with EKVX NSCLC and in the assay with OVCAR-8 ovarian was over 100 µM each time.

Turning to `CCOC(CBr)OC1C(=O)OCC1(C)C` (stereo unspecified), the TGI in the assay with PC-3 prostate, with SNB-75 CNS, in the assay on HT29 colon, with SK-OV-3 ovarian, in the assay on SK-MEL-28 melanoma and in the assay on SR leukemia was over 100 µM each time. In addition, the TGI in the assay with HCC-2998 colon, with NCI/ADR-RES ovarian, with EKVX NSCLC and in the assay on OVCAR-8 ovarian was over 100 µM in each case.

As for `O=C(Nc1ccccc1C(=O)NCc1ccccc1)/C(=C/c1ccccc1O)NC(=O)c1ccccc1`, the TGI in the assay with PC-3 prostate is over 100 µM; with SNB-75 CNS it was 63.3 µM; in the assay with HT29 colon it was over 100 µM; in the assay on SK-OV-3 ovarian it was over 100 µM; in the assay on SK-MEL-28 melanoma, over 100 µM; in the assay on SR leukemia it was over 100 µM. Moreover, the TGI in the assay on HCC-2998 colon, with NCI/ADR-RES ovarian, in the assay on EKVX NSCLC and in the assay on OVCAR-8 ovarian was over 100 µM each time.

With `Nc1cc(C2CCCc3c2[nH]c2ccccc32)ccc1O` (stereo unspecified), the TGI in the assay with PC-3 prostate, in the assay with SNB-75 CNS, in the assay on HT29 colon, in the assay on SK-OV-3 ovarian, in the assay with SK-MEL-28 melanoma and in the assay with SR leukemia was over 100 µM in each case. Besides, the TGI in the assay with HCC-2998 colon, in the assay with NCI/ADR-RES ovarian, with EKVX NSCLC and in the assay with OVCAR-8 ovarian was over 100 µM in each case.

Turning to `CS(=O)(=O)OCCN(CCOS(C)(=O)=O)c1ccc(C=Nc2ccc(-c3csc(Cc4ccccc4)n3)cc2)c(Cl)c1`, the TGI with PC-3 prostate is over 79.8 µM; in the assay on SNB-75 CNS, over 68.1 µM; with HT29 colon it was 64.5 µM; with SK-OV-3 ovarian it was over 77.7 µM; in the assay on SK-MEL-28 melanoma, over 100 µM; in the assay on SR leukemia, 74.3 µM. For the same compound, the TGI was 35.1 µM with HCC-2998 colon, over 70 µM in the assay on NCI/ADR-RES ovarian, over 100 µM in the assay on EKVX NSCLC and over 66 µM in the assay with OVCAR-8 ovarian.

With `COc1cc(C[C@@]2(C)[C@@H]3CCC[C@H](CO)[C@@]3(C)CC[C@@H]2C)c(Cl)c(OC)c1`, the TGI with PC-3 prostate was 27.2 µM; with SNB-75 CNS it was 31.9 µM; with HT29 colon it was 26 µM; with SK-OV-3 ovarian, 31.3 µM; in the assay on SK-MEL-28 melanoma, 60.9 µM; in the assay on SR leukemia, 48.5 µM. For the same compound, the TGI in the assay with HCC-2998 colon stood at 29.8 µM; with NCI/ADR-RES ovarian, 31.3 µM; in the assay with EKVX NSCLC, 27.5 µM; in the assay with OVCAR-8 ovarian, 31.7 µM.

Consider `CCCC(=O)OCC1OC(n2cc(F)c(=O)[nH]c2=O)CC1OC(=O)CCC` (stereo unspecified), for which the TGI with PC-3 prostate, with HT29 colon, in the assay on SK-OV-3 ovarian, in the assay on SK-MEL-28 melanoma, in the assay with SR leukemia and with HCC-2998 colon was over 10 µM each time. For the same compound, the TGI in the assay on NCI/ADR-RES ovarian, in the assay on EKVX NSCLC and with OVCAR-8 ovarian was over 10 µM in each case.

For the compound `O=c1cc(NNc2ccccc2)[nH]c(=O)[nH]1`, the TGI in the assay with PC-3 prostate is 36.3 µM; with HT29 colon it was 39 µM; in the assay with SK-OV-3 ovarian, over 100 µM; in the assay on SK-MEL-28 melanoma, 23.2 µM; in the assay on SR leukemia it was 84.6 µM; with HCC-2998 colon it was 39.9 µM. The results for the TGI in the assay with NCI/ADR-RES ovarian, in the assay with EKVX NSCLC and in the assay on OVCAR-8 ovarian were 67.9 µM, over 100 µM and 46.1 µM, respectively.

Regarding `CCC1c2[nH]c3ccccc3c2C[C@H]2C(=O)NC(C)C(=O)N12` (stereo partly specified), the TGI in the assay on PC-3 prostate, with SNB-75 CNS, in the assay with HT29 colon, with SK-OV-3 ovarian, with SK-MEL-28 melanoma and in the assay with SR leukemia was over 100 µM in each case. Besides, the TGI in the assay on HCC-2998 colon, in the assay on NCI/ADR-RES ovarian, in the assay on EKVX NSCLC and in the assay on OVCAR-8 ovarian was over 100 µM each time.

With `COc1c(C(=O)/C(=N/Nc2ccc(C(=O)O)cc2)C(C)=O)c(O)cc2occc12`, the TGI in the assay with PC-3 prostate, with SNB-75 CNS, with HT29 colon, in the assay on SK-OV-3 ovarian, in the assay with SK-MEL-28 melanoma and in the assay with SR leukemia was over 100 µM each time. Moreover, the TGI with HCC-2998 colon, with NCI/ADR-RES ovarian, with EKVX NSCLC and with OVCAR-8 ovarian was over 100 µM throughout.

In the case of `CC(=O)C1=C(C)N(c2ccccc2)C2(O)C3=C(C(=O)c4ccccc4C3=O)C(O)=CC12Cl` (stereo unspecified), the TGI in the assay with PC-3 prostate was 46.5 µM; in the assay with SNB-75 CNS it was 16.2 µM; in the assay with HT29 colon it was 8.45 µM; with SK-OV-3 ovarian, over 100 µM; in the assay with SK-MEL-28 melanoma, 23.6 µM; in the assay with SR leukemia, 12.3 µM. The TGI in the assay on HCC-2998 colon is 25.9 µM; with NCI/ADR-RES ovarian it was over 100 µM; in the assay on EKVX NSCLC it was over 100 µM; in the assay with OVCAR-8 ovarian it was over 100 µM.

Take `COC(=O)C1(Cc2ccc3c(c2)CCC3)Cc2ccc3c(c2C1=O)CCC3` (stereo unspecified): the TGI with PC-3 prostate is over 95.2 µM; in the assay on SNB-75 CNS, over 55.5 µM; in the assay with HT29 colon, over 34.8 µM; in the assay with SK-OV-3 ovarian, over 100 µM; in the assay on SK-MEL-28 melanoma, over 100 µM; in the assay with SR leukemia, 7.76 µM. Also, the TGI is 44.5 µM in the assay on HCC-2998 colon, 13.8 µM in the assay on NCI/ADR-RES ovarian, over 100 µM in the assay with EKVX NSCLC and over 100 µM in the assay on OVCAR-8 ovarian.

In the case of `O=S1(=O)OCCOS(=O)(=O)C1(F)Cc1ccccc1`, the TGI in the assay on PC-3 prostate, in the assay on SNB-75 CNS, in the assay on HT29 colon, in the assay with SK-OV-3 ovarian, in the assay with SK-MEL-28 melanoma and in the assay on SR leukemia was over 100 µM throughout. Moreover, the TGI in the assay with HCC-2998 colon, with NCI/ADR-RES ovarian, in the assay with EKVX NSCLC and in the assay with OVCAR-8 ovarian was over 100 µM in each case.

Turning to `COC(=O)c1ccc(OCCn2nnc(C(=O)NN)c2C(=O)NN)cc1`, the TGI with PC-3 prostate, in the assay on HT29 colon, in the assay with SK-MEL-28 melanoma, with SR leukemia, in the assay on HCC-2998 colon and in the assay with NCI/ADR-RES ovarian was over 100 µM throughout. Also, the TGI in the assay with EKVX NSCLC and in the assay with OVCAR-8 ovarian was over 100 µM each time.
